US12077503B2, “Substituted cyclic amides and their use as herbicides” (FMC CORPORATION, priority 2015, dated 2024)

Columns and labels:
Format in all cases: in vivo
[1] = tested on: giant foxtail (Setaria faberii); assay: Test A preemergence
In short: (§1)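 Ratings of 0 (no effect) to 100 (complete control) come from visual comparison with untreated controls roughly 10 d after treatment. Test chemicals, formulated in a non-phytotoxic solvent mixture with surfactant, were applied either as a preemergence directed soil spray on seeded soil or postemergence to one- to two-leaf plants 2 to 10 cm tall.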

[2] = tested on: ryegrass, Italian (Italian ryegrass, Lolium multiflorum); assay: Test A preemergence
In short: as §1

[3] = tested on: barnyardgrass (Echinochloa crus-galli); assay: Test A preemergence
In short: as §1

[4] = tested on: ragweed (common ragweed, Ambrosia elatior); assay: Test A preemergence
In short: as §1

Kochia (Kochia scoparia) [5] = assay: Test A preemergence
In short: as §1

[6] = tested on: pigweed (Amaranthus retroflexus); assay: Test A preemergence
rice (Oryra sativa) = assay: Test B flooded paddy test; settings: Flood, 250 g ai/ha; 0 to 100 scale where 0 is no effect and 100 is complete control; 13 to 15 d
In short: (§2)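 Compound goes directly into floodwater once pots are flooded 3 cm above soil, targeting plants at two leaves; the water depth is then held for the test duration. Plants sit 13–15 d in a greenhouse and are rated visually, 100 denoting complete control.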

[7] = tested on: ducksalad (Heteranthera limosa); assay: Test B flooded paddy test; settings: Flood, 250 g ai/ha; 0 to 100 scale where 0 is no effect and 100 is complete control; 13 to 15 d
In short: as §2

[8] = tested on: barnyardgrass (Echinochloa crus-galli); assay: Test B flooded paddy test; settings: Flood, 250 g ai/ha; 0 to 100 scale where 0 is no effect and 100 is complete control; 13 to 15 d
In short: as §2

[9] = tested on: sedge, umbrella (small-flower umbrella sedge, Cyperus difformis); assay: Test B flooded paddy test; settings: Flood, 250 g ai/ha; for Plant response rating, Sedge, Umbrella: 0 to 100 scale where 0 is no effect and 100 is complete control, 13 to 15 d
In short: as §2

[10] = tested on: giant foxtail (Setaria faberii); assay: Test A postemergence
In short: as §1

corn (Zea mays) = assay: Test A postemergence
In short: as §1

[11] = tested on: ryegrass, Italian (Italian ryegrass, Lolium multiflorum); assay: Test A postemergence
In short: as §1

[12] = tested on: barnyardgrass (Echinochloa crus-galli); assay: Test A postemergence
In short: as §1

[13] = tested on: blackgrass (Alopecurus myosuroides); assay: Test A postemergence
In short: as §1

[14] = tested on: wheat (Triticum aestivum); assay: Test A postemergence
In short: as §1

[15] = tested on: ragweed (common ragweed, Ambrosia elatior); assay: Test A postemergence
In short: as §1

Kochia (Kochia scoparia) [16] = assay: Test A postemergence
In short: as §1

[17] = tested on: pigweed (Amaranthus retroflexus); assay: Test A postemergence
In short: as §1

[18] = tested on: Galium (catchweed bedstraw, Galium aparine); assay: Test A postemergence
In short: as §1

[19] = 125 g ai/ha, Preemergence, visual injury after approximately 10 d, 0 to 100 scale where 0 is no effect and 100 is complete control
[20] = 500 g ai/ha, preemergence, 0 to 100 scale, 0 = no effect, 100 = complete control
[21] = 125 g ai/ha, postemergence, visual rating after approx. 10 d, 0 to 100 scale (0 no effect, 100 complete control)
[22] = 500 g ai/ha, postemergence, visual injury, 0 to 100 scale (0 no effect, 100 complete control), approx. 10 d
[23] = 125 g ai/ha, preemergence, visual rating after approx. 10 d, 0 to 100 scale where 0 is no effect and 100 is complete control
[24] = 125 g ai/ha, postemergence, visual injury after approximately 10 d, 0 to 100 scale (0 no effect, 100 complete control)
[25] = Preemergence, 500 g ai/ha, visual injury approx. 10 d
[26] = 125 g ai/ha, postemergence, visual injury rating on 0 to 100 scale (0 no effect, 100 complete control), approx. 10 d
[27] = Postemergence, 500 g ai/ha, 0 to 100 scale where 0 is no effect and 100 is complete control

Cc1cccc(C2CN(C)C(=O)C2C(=O)Nc2ccccc2F)c1 (stereo not drawn) [Compound 666]
Plant response rating, Foxtail, Giant [1, 19]: 100 | Plant response rating, Foxtail, Giant [1, 20]: 100 | Plant response rating, Ryegrass, Italian [2, 19]: 20 | Plant response rating, Ryegrass, Italian [2, 20]: 50 | Plant response rating, Barnyardgrass [3, 19]: 90 | Plant response rating, Barnyardgrass [3, 20]: 90 | Plant response rating, Ragweed [4, 19]: 0 | Plant response rating, Ragweed [4, 20]: 70 | Plant response rating, Kochia (Kochia (Kochia scoparia) [5]; [19]): 20 | Plant response rating, Kochia (Kochia (Kochia scoparia) [5]; [20]): 60 | Plant response rating, Pigweed [6, 19]: 0 | Plant response rating, Pigweed [6, 20]: 20 | Plant response rating, Rice (rice (Oryra sativa)): 0 | Plant response rating, Ducksalad [7]: 85 | Plant response rating, Barnyardgrass [8]: 75 | Plant response rating, Sedge, Umbrella [9]: 0 | Plant response rating, Foxtail, Giant [10, 21]: 90 | Plant response rating, Foxtail, Giant [10, 22]: 90 | Plant response rating, Corn (corn (Zea mays); [21]): 60 | Plant response rating, Corn (corn (Zea mays); [22]): 80 | Plant response rating, Ryegrass, Italian [11, 21]: 20 | Plant response rating, Ryegrass, Italian [11, 22]: 60 | Plant response rating, Barnyardgrass [12, 21]: 90 | Plant response rating, Barnyardgrass [12, 22]: 90 | Plant response rating, Blackgrass [13, 21]: 60 | Plant response rating, Blackgrass [13, 22]: 60 | Plant response rating, Wheat [14, 21]: 20 | Plant response rating, Wheat [14, 22]: 60 | Plant response rating, Ragweed [15, 21]: 0 | Plant response rating, Ragweed [15, 22]: 0 | Plant response rating, Kochia (Kochia (Kochia scoparia) [16]; [21]): 0 | Plant response rating, Kochia (Kochia (Kochia scoparia) [16]; [22]): 30 | Plant response rating, Pigweed [17, 21]: 0 | Plant response rating, Pigweed [17, 22]: 0 | Plant response rating, Galium [18, 21]: 30 | Plant response rating, Galium [18, 22]: 40

CN1CC(c2ccc(C(C)(F)F)cc2)C(C(=O)Nc2ccc(F)cc2F)C1=O (stereo not drawn) [Compound 693]
Plant response rating, Foxtail, Giant [1, 19]: 90 | Plant response rating, Foxtail, Giant [1, 20]: 90 | Plant response rating, Ryegrass, Italian [2, 23]: 60 | Plant response rating, Ryegrass, Italian [2, 20]: 70 | Plant response rating, Barnyardgrass [3, 19]: 80 | Plant response rating, Barnyardgrass [3, 20]: 90 | Plant response rating, Ragweed [4, 23]: 50 | Plant response rating, Ragweed [4, 20]: 60 | Plant response rating, Kochia (Kochia (Kochia scoparia) [5]; [19]): 80 | Plant response rating, Kochia (Kochia (Kochia scoparia) [5]; [20]): 90 | Plant response rating, Pigweed [6, 23]: 70 | Plant response rating, Pigweed [6, 20]: 80 | Plant response rating, Rice (rice (Oryra sativa)): 20 | Plant response rating, Ducksalad [7]: 70 | Plant response rating, Barnyardgrass [8]: 75 | Sedge, Umbrella plant response rating ([9]; scale of 0 to 100 where 0 is no effect and 100 is complete control): 0 | Plant response rating, Foxtail, Giant [10, 24]: 80 | Plant response rating, Foxtail, Giant [10, 22]: 80 | Plant response rating, Corn (corn (Zea mays); [24]): 40 | Plant response rating, Corn (corn (Zea mays); [22]): 70 | Plant response rating, Ryegrass, Italian [11, 24]: 50 | Plant response rating, Ryegrass, Italian [11, 22]: 70 | Plant response rating, Barnyardgrass [12, 21]: 70 | Plant response rating, Barnyardgrass [12, 22]: 80 | Plant response rating, Blackgrass [13, 21]: 10 | Plant response rating, Blackgrass [13, 22]: 50 | Plant response rating, Wheat [14, 24]: 0 | Plant response rating, Wheat [14, 22]: 50 | Plant response rating, Ragweed [15, 24]: 0 | Plant response rating, Ragweed [15, 22]: 10 | Plant response rating, Kochia (Kochia (Kochia scoparia) [16]; [24]): 60 | Plant response rating, Kochia (Kochia (Kochia scoparia) [16]; [22]): 70 | Plant response rating, Pigweed [17, 24]: 10 | Plant response rating, Pigweed [17, 22]: 70 | Plant response rating, Galium [18, 24]: 60 | Plant response rating, Galium [18, 22]: 70

O=C1NCC(c2cc(F)cc(Cl)c2)C1C(=O)Nc1ccccc1F (stereo not drawn) [Compound 491]
Plant response rating, Foxtail, Giant [1, 19]: 90 | Foxtail, Giant plant response rating (0 to 100 scale, 0 is no effect, 100 is complete control) [1, 25]: 90 | Plant response rating, Ryegrass, Italian [2, 19]: 20 | Ryegrass, Italian plant response rating (0 to 100 scale, 0 is no effect, 100 is complete control) [2, 25]: 30 | Plant response rating, Barnyardgrass [3, 19]: 90 | Barnyardgrass plant response rating (0 to 100 scale, 0 is no effect, 100 is complete control) [3, 25]: 90 | Plant response rating, Ragweed [4, 19]: 0 | Ragweed plant response rating (0 to 100 scale, 0 is no effect, 100 is complete control) [4, 25]: 0 | Plant response rating, Kochia (Kochia (Kochia scoparia) [5]; [19]): 0 | Kochia plant response rating (0 to 100 scale, 0 is no effect, 100 is complete control) (Kochia (Kochia scoparia) [5]; [25]): 20 | Plant response rating, Pigweed [6, 19]: 0 | Pigweed plant response rating (0 to 100 scale, 0 is no effect, 100 is complete control) [6, 25]: 0 | Plant response rating, Rice (rice (Oryra sativa)): 0 | Plant response rating, Ducksalad [7]: 40 | Plant response rating, Barnyardgrass [8]: 0 | Plant response rating, Sedge, Umbrella [9]: 0 | Foxtail, Giant plant response rating [10, 26]: 80 | Plant response rating, Foxtail, Giant [10, 27]: 80 | Corn plant response rating (corn (Zea mays); [26]): 60 | Plant response rating, Corn (corn (Zea mays); [27]): 90 | Ryegrass, Italian plant response rating [11, 26]: 0 | Plant response rating, Ryegrass, Italian [11, 27]: 30 | Barnyardgrass plant response rating [12, 26]: 90 | Plant response rating, Barnyardgrass [12, 27]: 80 | Blackgrass plant response rating [13, 26]: 20 | Plant response rating, Blackgrass [13, 27]: 50 | Wheat plant response rating [14, 26]: 30 | Plant response rating, Wheat [14, 27]: 60 | Ragweed plant response rating [15, 26]: 0 | Plant response rating, Ragweed [15, 27]: 20 | Kochia plant response rating (Kochia (Kochia scoparia) [16]; [26]): 0 | Plant response rating, Kochia (Kochia (Kochia scoparia) [16]; [27]): 20 | Pigweed plant response rating [17, 26]: 0 | Plant response rating, Pigweed [17, 27]: 20 | Galium plant response rating [18, 26]: 0 | Plant response rating, Galium [18, 27]: 30
